Experimental data from patent US10689354B2, “Aminoazole derivative” (Teijin Pharma Limited, priority 2015, dated 2020).

Experiments:
human androgen receptor = molecular target: T1, human androgen receptor (Homo sapiens, UniProt P10275); experiment: Reporter assay of an androgen receptor responsive sequence (luciferase, transiently transfected HEK293 cells); assay type: cell-based; details: 24 hours incubation, relative to activity of 100 nM DHT, read-out: AR transcriptive activity (pEC50) (converted)
T1 construct: expressed in transfected cells; host or cells: HEK293
T1 sequence (P10275 1-920): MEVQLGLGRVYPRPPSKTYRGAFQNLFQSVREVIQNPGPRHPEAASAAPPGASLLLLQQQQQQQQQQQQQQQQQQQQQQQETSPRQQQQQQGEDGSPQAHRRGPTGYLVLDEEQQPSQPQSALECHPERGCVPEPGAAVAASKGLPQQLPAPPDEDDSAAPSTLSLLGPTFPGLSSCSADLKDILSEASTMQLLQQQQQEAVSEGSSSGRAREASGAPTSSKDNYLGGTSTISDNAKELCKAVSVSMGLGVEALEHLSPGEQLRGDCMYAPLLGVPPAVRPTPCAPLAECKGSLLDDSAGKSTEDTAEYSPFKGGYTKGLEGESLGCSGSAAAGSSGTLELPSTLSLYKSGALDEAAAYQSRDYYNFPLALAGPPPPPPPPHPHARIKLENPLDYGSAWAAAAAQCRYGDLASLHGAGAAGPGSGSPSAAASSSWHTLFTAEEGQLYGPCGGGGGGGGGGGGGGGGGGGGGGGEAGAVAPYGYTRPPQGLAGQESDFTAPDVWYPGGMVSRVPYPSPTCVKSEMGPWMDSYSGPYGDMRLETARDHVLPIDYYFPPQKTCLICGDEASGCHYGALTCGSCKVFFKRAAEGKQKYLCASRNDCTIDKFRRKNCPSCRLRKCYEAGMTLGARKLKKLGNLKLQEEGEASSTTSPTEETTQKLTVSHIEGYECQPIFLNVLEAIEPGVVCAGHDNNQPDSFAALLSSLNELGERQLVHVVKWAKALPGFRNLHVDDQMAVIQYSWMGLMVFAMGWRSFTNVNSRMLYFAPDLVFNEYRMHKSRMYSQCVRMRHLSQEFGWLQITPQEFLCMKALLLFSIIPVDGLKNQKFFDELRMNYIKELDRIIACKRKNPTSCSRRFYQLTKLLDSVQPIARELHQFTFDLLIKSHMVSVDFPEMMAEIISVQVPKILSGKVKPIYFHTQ
Outline: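 Agonism scored as pEC50, fitted by 4-parameter curve against the response to 100 nM DHT, from dual-luciferase readout after 24 h compound treatment. Cells were HEK293 co-transfected (3 h) with human AR expression vector, androgen-responsive firefly reporter and Renilla control, in charcoal-stripped serum.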

[1] = molecular target: T2, androgen receptor (AR-LBD) (Rattus norvegicus, UniProt P15207); experiment: Evaluation of androgen receptor affinity (PolarScreen Androgen Receptor Competitor Assay Kit, Red; fluorescence polarization); details: 22° C. for 5 hours, relative to binding rate of 1 μM DHT, read-out: AR affinity (pEC50) (converted)
T2 construct: 5 μL of 2×AR-LBD/Fluoromone AL Red Complex contained in the kit; purchased Invitrogen
T2 sequence (P15207 651-882 limits assumed): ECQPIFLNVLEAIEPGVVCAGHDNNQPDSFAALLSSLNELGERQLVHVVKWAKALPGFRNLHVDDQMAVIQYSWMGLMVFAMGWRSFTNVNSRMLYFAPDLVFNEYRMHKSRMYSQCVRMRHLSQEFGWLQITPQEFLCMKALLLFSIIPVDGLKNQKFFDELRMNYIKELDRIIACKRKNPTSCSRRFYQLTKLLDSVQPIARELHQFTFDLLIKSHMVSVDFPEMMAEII
Outline: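 Duplicate wells of test compound were mixed with the kit's rat AR-LBD–Fluoromone AL Red tracer complex and left 5 hours at 22 °C before polarization was read. A 4-parameter fit gave pEC50, with binding rate referenced to 1 μM dihydrotestosterone.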

| SMILES | EC50 (human androgen receptor) | EC50 [1] |
| --- | --- | --- |
| Cc1sc(N(Cc2ccc(OC3CCCC3)cc2)c2ccc(C#N)cc2)nc1C(=O)NS(C)(=O)=O [Compound 581, 2-[4-cyano-N-[[4-(cyclopentoxy)phenyl]methyl]anilino]-5-methyl-N-methylsulfonyl-thiazole-4-carboxamide] | 501 nM | 25.1 nM |
| Cc1sc(N(Cc2ncc(C(F)(F)F)cc2F)c2ccc(C#N)cc2)nc1C(=O)NS(C)(=O)=O [Example 170, 2-[4-cyano-N-[[3-fluoro-5-(trifluoromethyl)-2-pyridyl]methyl]anilino]-5-methyl-N-methylsulfonyl-thiazole-4-carboxamide] | 200 nM | 63.1 nM |
| Cc1sc(N(Cc2cc(F)cc(Cl)c2)c2ccc(C#N)cc2)nc1C(=O)NS(C)(=O)=O [Compound 99, 2-[N-[(3-chloro-5-fluoro-phenyl)methyl]-4-cyano-anilino]-5-methyl-N-methylsulfonyl-thiazole-4-carboxamide] | 126 nM | 63.1 nM |
| CC(C)c1sc(N(Cc2ccccc2)c2ccc(C#N)cc2)nc1C(=O)NS(C)(=O)=O [Compound 600, 2-(N-benzyl-4-cyano-anilino)-5-isopropyl-N-methylsulfonyl-thiazole-4-carboxamide] | > 10000 nM | 100 nM |
| COc1ccc(CN(c2ccc(C#N)cc2)c2nc(C(=O)NS(C)(=O)=O)c(C)s2)c(F)c1F [Compound 112, 2-[4-cyano-N-[(2,3-difluoro-4-methoxy-phenyl)methyl]anilino]-5-methyl-N-methylsulfonyl-thiazole-4-carboxamide] | 79.4 nM | 31.6 nM |
| COCCCOc1ccc(CN(c2ccc(C#N)cc2)c2nc(C(=O)NS(C)(=O)=O)c(C)s2)cc1 [Compound 582, 2-[4-cyano-N-[[4-(3-methoxypropoxy)phenyl]methyl]anilino]-5-methyl-N-methylsulfonyl-thiazole-4-carboxamide] | 794 nM | 39.8 nM |
| COCCCS(=O)(=O)NC(=O)c1nc(N(Cc2ccc(OC(F)F)cc2F)c2ccc(C#N)cc2)sc1C [Compound 523, 2-[4-cyano-N-[[4-(difluoromethoxy)-2-fluoro-phenyl]methyl]anilino]-N-(3-methoxypropylsulfonyl)-5-methyl-thiazole-4-carboxamide] | 398 nM | 31.6 nM |
| Cc1sc(N(CCCOCc2ccccc2)c2ccc(C#N)cc2)nc1C(=O)NS(C)(=O)=O [Compound 359, 2-[N-(3-benzyloxypropyl)-4-cyano-anilino]-5-methyl-N-methylsulfonyl-thiazole-4-carboxamide] | > 10000 nM | 126 nM |
| Cc1sc(N(CCc2ccc(Cl)cc2)Cc2ccc(Cl)cc2)nc1C(=O)NS(=O)(=O)Cc1cccnc1 [Compound 695, 2-[2-(4-chlorophenyl)ethyl-[(4-chlorophenyl)methyl]amino]-5-methyl-N-(3-pyridylmethylsulfonyl)thiazole-4-carboxamide] | 63.1 nM | 25.1 nM |
| Cc1sc(N(Cc2ccc(OCc3cccnc3)cc2)c2ccc(C#N)cc2)nc1C(=O)NS(C)(=O)=O [Compound 567, 2-[4-cyano-N-[[4-(3-pyridylmethoxy)phenyl]methyl]anilino]-5-methyl-N-methylsulfonyl-thiazole-4-carboxamide] | > 10000 nM | 100 nM |
| Cc1cc(CN(CCc2ccc(OC(F)(F)F)cc2)c2nc(C(=O)NS(C)(=O)=O)c(C)s2)no1 [Compound 509, 5-methyl-2-[(5-methylisoxazol-3-yl)methyl-[2-[4-(trifluoromethoxy)phenyl]ethyl]amino]-N-methylsulfonyl-thiazole-4-carboxamide] | > 10000 nM | 200 nM |
| Cc1sc(N(Cc2ncc(Cl)cc2F)c2ccc(C#N)cc2)nc1C(=O)NS(C)(=O)=O [Example 168, 2-[N-[(5-chloro-3-fluoro-2-pyridyl)methyl]-4-cyano-anilino]-5-methyl-N-methylsulfonyl-thiazole-4-carboxamide] | 200 nM | 100 nM |
| Cc1sc(N(CCC2CCCCO2)c2ccc(C#N)cc2)nc1C(=O)NS(C)(=O)=O (stereo not drawn) [Compound 443, 2-[4-cyano-N-(2-tetrahydropyran-2-ylethyl)anilino]-5-methyl-N-methylsulfonyl-thiazole-4-carboxamide] | 501 nM | 200 nM |
| Cc1sc(N(Cc2cccc(C#N)c2)c2ccc(C#N)cc2)nc1C(=O)NS(C)(=O)=O [Compound 9, 2-[4-cyano-N-[(3-cyanophenyl)methyl]anilino]-5-methyl-N-methylsulfonyl-thiazole-4-carboxamide] | 398 nM | 100 nM |
| Cc1sc(N(Cc2ccccc2)c2ccc(C#N)cc2)nc1C(=O)NS(=O)(=O)Cc1ccccc1 [Compound 374, 2-(N-benzyl-4-cyano-anilino)-N-benzylsulfonyl-5-methyl-thiazole-4-carboxamide] | 501 nM | 39.8 nM |
| Cc1sc(N(Cc2ccc(S(C)(=O)=O)cc2)c2ccc(C#N)cc2)nc1C(=O)NS(C)(=O)=O [Compound 12, 2-[4-cyano-N-[(4-methylsulfonylphenyl)methyl]anilino]-5-methyl-N-methylsulfonyl-thiazole-4-carboxamide] | > 10000 nM | 316 nM |
| Cc1sc(N(Cc2ccc(OC(F)(F)F)cc2)c2ccc(C#N)cc2)nc1C(=O)NS(=O)(=O)CCCO [Example 200, 2-[4-cyano-N-[[4-(trifluoromethoxy)phenyl]methyl]anilino]-N-(3-hydroxypropylsulfonyl)-5-methyl-thiazole-4-carboxamide] | 316 nM | 25.1 nM |
| Cc1sc(N(CCc2cccc(O)c2)c2ccc(C#N)cc2)nc1C(=O)NS(C)(=O)=O [Compound 401, 2-[4-cyano-N-[2-(3-hydroxyphenyl)ethyl]anilino]-5-methyl-N-methylsulfonyl-thiazole-4-carboxamide] | 1580 nM | 158 nM |
| Cc1sc(N(Cc2ccc(OC(F)(F)F)cc2)c2ccc(C#N)cc2)nc1C(=O)NS(=O)(=O)CCCC#N [Example 199, N-(3-cyanopropylsulfonyl)-2-[4-cyano-N-[[4-(trifluoromethoxy)phenyl]methyl]anilino]-5-methyl-thiazole-4-carboxamide] | 1000 nM | 39.8 nM |
| COc1c(F)c(CN(c2ccc(C#N)cc2)c2nc(C(=O)NS(C)(=O)=O)c(C)s2)c(F)c(F)c1C(F)(F)F [Compound 418, 2-[4-cyano-N-[[2,3,6-trifluoro-5-methoxy-4-(trifluoromethyl)phenyl]methyl]anilino]-5-methyl-N-methylsulfonyl-thiazole-4-carboxamide] | 158 nM | 50.1 nM |
| Cc1sc(N(Cc2cccc3ccsc23)c2ccc(C#N)cc2)nc1C(=O)NS(C)(=O)=O [Compound 378, 2-[N-(benzothiophen-7-ylmethyl)-4-cyano-anilino]-5-methyl-N-methylsulfonyl-thiazole-4-carboxamide] | 50.1 nM | 25.1 nM |
| CS(=O)(=O)NC(=O)c1nc(N(Cc2ccc(Cl)c(Cl)c2)c2ccc(C#N)cc2)oc1C1CC1 [Compound 647, 2-[4-cyano-N-[(3,4-dichlorophenyl)methyl]anilino]-5-cyclopropyl-N-methylsulfonyl-oxazole-4-carboxamide] | > 10000 nM | 25.1 nM |
| COCCCS(=O)(=O)NC(=O)c1nc(N(Cc2ccccc2)c2ccc(C#N)cc2)sc1C1CC1 [Compound 664, 2-(N-benzyl-4-cyano-anilino)-5-cyclopropyl-N-(3-methoxypropylsulfonyl)thiazole-4-carboxamide] | > 10000 nM | 158 nM |
| Cc1oc(N(CC2CCC(F)(F)CC2)c2ccc(C#N)cc2)nc1C(=O)NS(C)(=O)=O [Compound 621, 2-[4-cyano-N-[(4,4-difluorocyclohexyl)methyl]anilino]-5-methyl-N-methylsulfonyl-oxazole-4-carboxamide] | > 10000 nM | > 2000 nM |
